# Patent publication US7094900B2, “N-Aryl-2-oxazolidinones and their derivatives” (Pharmacia & Upjohn Company LLC, priority 2002, dated 2006)
# System: Saur 9213
# Test: MIC test, standard agar dilution method
# Assay type: cell-based
# Details: Mueller Hinton agar, incubated overnight at 35° C., lowest concentration that inhibits visible growth
# Excerpt: The oxazolidinone antibacterial agents of this invention have useful activity against a variety of organisms. The in vitro activity of compounds of this invention can be assessed by standard testing procedures such as the determination of minimum inhibitory concentration (MIC) by agar dilution as described in “Approved Standard. Methods for Dilution Antimicrobial Susceptibility Tests for Bacteria That Grow Aerobically”, 3rd. ed., published 1993 by the National Committee for Clinical Laboratory Standards, Villanova, Pa., USA. MIC Test Method The in vitro MICs of test compounds were determined by a standard agar dilution method. A stock drug solution of each analog was prepared in the preferred solvent, usually DMSO:H2O (1:3). Serial 2-fold dilutions of each sample are made using 1.0 ml aliquots of sterile distilled water. To each 1.0 ml aliquot of drug was added 9 ml of molten Mueller Hinton gar medium. The drug-supplemented agar was mixed, poured into 15×100 mm petri dishes, and allowed to solidify and dry prior to inoculation. Vial of each of the test organisms are maintained frozen in the vapor phase of a liquid nitrogen freezer. Test cultures are grown overnight at 35° C. on the medium appropriate for the organism. Colonies are harvested with a sterile swab, and cell suspensions are prepared in Trypticase Soy broth (TSB) to equal the turbidity of a 0.5 McFarland standard. A 1:20 dilution of each suspension was made in TSB. The plates containing the drug supplemented agar are inoculated with a 0.001 ml drop of the cell suspension using a Steers replicator, yielding approximately 10^4 to 10^5 cells per spot. The plates are incubated overnight at 35° C. Following incubation the Minimum Inhibitory Concentration (MIC μg/ml), the lowest concentration of the drug that inhibits visible growth of the organism, was read and recorded.
row,MIC [µg/mL],SMILES
1,4,"O=C1CCC(c2ccc(N3C[C@H](CNC(=O)C(Cl)Cl)OC3=O)cc2F)CN1 (stereo partly drawn) [Example 3, 2,2-dichloro-N-({(5S)-3-[3-fluoro-4-(6-oxopiperidin-3-yl)phenyl]-2-oxo-1,3-oxazolidin-5-yl}methyl)acetamide]"
2,4,"CCC(=O)NC[C@H]1CN(c2ccc(C3CCNC(=O)C3)c(F)c2)C(=O)O1 (stereo partly drawn) [Example 17, N-({(5S)-3-[3-fluoro-4-(2-oxopiperidin-4-yl)phenyl]-2-oxo-1,3-oxazolidin-5-yl}methyl)propanamide]"
3,2,"CC(=O)NC[C@H]1CN(c2ccc(C3CCNC(=O)C3)c(F)c2)C(=O)O1 (stereo partly drawn) [Example 16, N-({(5S)-3-[3-fluoro-4-(2-oxopiperidin-4-yl)phenyl]-2-oxo-1,3-oxazolidin-5-yl}methyl)acetamide]"
4,4,"CC(=O)NC[C@H]1CN(c2cc(F)c(C3CCNC(=O)C3)c(F)c2)C(=O)O1 (stereo partly drawn) [Example 19, N-({(5S)-3-[3,5-difluoro-4-(2-oxopiperidin-4-yl)phenyl]-2-oxo-1,3-oxazolidin-5-yl}methyl)acetamide]"
5,4,"O=C1CCC(c2ccc(N3C[C@H](CNC(=O)C(F)F)OC3=O)cc2F)CN1 (stereo partly drawn) [Example 5, 2,2-difluoro-N-({(5S)-3-[3-fluoro-4-(6-oxopiperidin-3-yl)phenyl]-2-oxo-1,3-oxazolidin-5-yl}methyl)acetamide]"
6,2,"O=C1CCC(c2c(F)cc(N3C[C@H](Cn4ccnn4)OC3=O)cc2F)CN1 (stereo partly drawn) [Example 26, 5-{2,6-difluoro-4-[(5R)-2-oxo-5-(1H-1,2,3-triazol-1-ylmethyl)-1,3-oxazolidin-3-yl]phenyl}piperidin-2-one]"
7,4,"CC(=O)NC[C@H]1CN(c2ccc(C3CCN(C)C(=O)C3)cc2)C(=O)O1 (stereo partly drawn) [Example 25, N-({(5S)-3-[4-(1-methyl-2-oxopiperidin-4-yl)phenyl]-2-oxo-1,3-oxazolidin-5-yl}methyl)acetamide]"
8,2,"O=C1CCC(c2c(F)cc(N3C[C@H](CNC(=O)C(Cl)Cl)OC3=O)cc2F)CN1 (stereo partly drawn) [Example 7, 2,2-dichloro-N-({(5S)-3-[3,5-difluoro-4-(6-oxopiperidin-3-yl)phenyl]-2-oxo-1,3-oxazolidin-5-yl}methyl)acetamide]"
9,1,"O=C1CC(c2ccc(N3C[C@H](CNC(=S)C(F)F)OC3=O)cc2F)CCN1 (stereo partly drawn) [Example 18, 2,2-difluoro-N-({(5S)-3-[3-fluoro-4-(2-oxopiperidin-4-yl)phenyl]-2-oxo-1,3-oxazolidin-5-yl}methyl)ethanethioamide]"
10,2,"O=C1CCC(c2ccc(N3C[C@H](CNC(=S)C(F)F)OC3=O)cc2)CN1 (stereo partly drawn) [Example 13, 2,2-difluoro-N-({(5S)-2-oxo-3-[4-(6-oxopiperidin-3-yl)phenyl]-1,3-oxazolidin-5-yl}methyl)ethanethioamide]"
11,4,"CC(=O)NC[C@H]1CN(c2cc(F)c(C3CCC(=O)NC3)c(F)c2)C(=O)O1 (stereo partly drawn) [Example 6, N-({(5S)-3-[3,5-difluoro-4-(6-oxopiperidin-3-yl)phenyl]-2-oxo-1,3-oxazolidin-5-yl}methyl)acetamide]"
12,1,"O=C1CC(c2ccc(N3C[C@H](CNC(=S)C(F)F)OC3=O)cc2)CCN1 (stereo partly drawn) [Example 23, 2,2-difluoro-N-({(5S)-2-oxo-3-[4-(2-oxopiperidin-4-yl)phenyl]-1,3-oxazolidin-5-yl}methyl)ethanethioamide]"
13,8,"CCC(=O)NC[C@H]1CN(c2ccc(C3CCNC(=O)C3)cc2)C(=O)O1 (stereo partly drawn) [Example 24, N-({(5S)-2-oxo-3-[4-(2-oxopiperidin-4-yl)phenyl]-1,3-oxazolidin-5-yl}methyl)propanamide]"
14,8,"CC(=O)NC[C@H]1CN(c2ccc(C3CCC(=O)NC3)cc2)C(=O)O1 (stereo partly drawn) [Example 10, N-({(5S)-2-oxo-3-[4-(6-oxopiperidin-3-yl)phenyl]-1,3-oxazolidin-5-yl}methyl)acetamide]"

# Second part, the molecule before the results:
row,SMILES,MIC [µg/mL]
1,"O=C1CCC(c2ccc(N3C[C@H](CNC(=S)C(F)F)OC3=O)cc2F)CN1 (stereo partly drawn) [Example 4, 2,2-difluoro-N-({(5S)-3-[3-fluoro-4-(6-oxopiperidin-3-yl)phenyl]-2-oxo-1,3-oxazolidin-5-yl}methyl)ethanethioamide]",1
2,"CC(=O)NC[C@H]1CN(c2ccc(C3CCC(=O)NC3)c(F)c2)C(=O)O1 (stereo partly drawn) [Example 1, N-({(5S)-3-[3-fluoro-4-(6-oxopiperidin-3-yl)phenyl]-2-oxo-1,3-oxazolidin-5-yl}methyl)acetamide]",4
3,"CCC(=O)NC[C@H]1CN(c2ccc(C3CCC(=O)NC3)cc2)C(=O)O1 (stereo partly drawn) [Example 11, N-({(5S)-2-oxo-3-[4-(6-oxopiperidin-3-yl)phenyl]-1,3-oxazolidin-5-yl}methyl)propanamide]",8
4,"CCC(=O)NC[C@H]1CN(c2cc(F)c(C3CCNC(=O)C3)c(F)c2)C(=O)O1 (stereo partly drawn) [Example 20, N-({(5S)-3-[3,5-difluoro-4-(2-oxopiperidin-4-yl)phenyl]-2-oxo-1,3-oxazolidin-5-yl}methyl)propanamide]",8
5,"CC(=O)NC[C@H]1CN(c2ccc(C3CCNC(=O)C3)cc2)C(=O)O1 (stereo partly drawn) [Example 22, N-({(5S)-2-oxo-3-[4-(2-oxopiperidin-4-yl)phenyl]-1,3-oxazolidin-5-yl}methyl)acetamide]",4
6,"CC(=O)NC[C@H]1CN(c2ccc(C3CCC(=O)N(C)C3)cc2)C(=O)O1 (stereo partly drawn) [Example 15, ({(5S)-3-[4-(1-methyl-6-oxopiperidin-3-yl)phenyl]-2-oxo-1,3-oxazolidin-5-yl}methyl)acetamide]",8
7,"O=C1CCC(c2c(F)cc(N3C[C@H](CNC(=S)C(F)F)OC3=O)cc2F)CN1 (stereo partly drawn) [Example 8, N-({(5S)-3-[3,5-difluoro-4-(6-oxopiperidin-3-yl)phenyl]-2-oxo-1,3-oxazolidin-5-yl}methyl)-2,2-difluoroethanethioamide]",1
8,"O=C1CC(c2c(F)cc(N3C[C@H](CNC(=S)C(F)F)OC3=O)cc2F)CCN1 (stereo partly drawn) [Example 21, N-({(5S)-3-[3,5-difluoro-4-(2-oxopiperidin-4-yl)phenyl]-2-oxo-1,3-oxazolidin-5-yl}methyl)-2,2-difluoroethanethioamide]",2
9,"O=C1CCC(c2ccc(N3C[C@H](CNC(=O)C(Cl)Cl)OC3=O)cc2)CN1 (stereo partly drawn) [Example 12, 2,2-dichloro-N-({(5S)-2-oxo-3-[4-(6-oxopiperidin-3-yl)phenyl]-1,3-oxazolidin-5-yl}methyl)acetamide]",4
10,"O=C1CCC(c2c(F)cc(N3C[C@H](CNC(=O)C(F)F)OC3=O)cc2F)CN1 (stereo partly drawn) [Example 9, N-({(5S)-3-[3,5-difluoro-4-(6-oxopiperidin-3-yl)phenyl]-2-oxo-1,3-oxazolidin-5-yl}methyl)-2,2-difluoroacetamide]",4
11,"CCC(=O)NC[C@H]1CN(c2ccc(C3CCC(=O)NC3)c(F)c2)C(=O)O1 (stereo partly drawn) [Example 2, N-({(5S)-3-[3-fluoro-4-(6-oxopiperidin-3-yl)phenyl]-2-oxo-1,3-oxazolidin-5-yl}methyl)propanamide]",4
